Test results from ChEMBL document CHEMBL1201862, “PubChem BioAssay data set” (2004).
Blank lines part the entries; values can stand above or below the molecule they belong to. The source made the active and inactive calls.

Columns and labels:
Beta-galactosidase = Beta-galactosidase (Escherichia coli, UniProt Q8VNN2); test: PubChem AID 485352; type: functional
[1] = target: T1, Type-1 angiotensin II receptor (Homo sapiens, UniProt P30556); test: antagonism of angiotensin II type 1 receptor – cell-based, uHTS hits, selectivity assay for APJ receptor antagonist project, dose response (AID 463214); type: functional;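 further: antagonist potency against angiotensin II stimulated AT1 response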
T1 sequence (P30556 whole entry): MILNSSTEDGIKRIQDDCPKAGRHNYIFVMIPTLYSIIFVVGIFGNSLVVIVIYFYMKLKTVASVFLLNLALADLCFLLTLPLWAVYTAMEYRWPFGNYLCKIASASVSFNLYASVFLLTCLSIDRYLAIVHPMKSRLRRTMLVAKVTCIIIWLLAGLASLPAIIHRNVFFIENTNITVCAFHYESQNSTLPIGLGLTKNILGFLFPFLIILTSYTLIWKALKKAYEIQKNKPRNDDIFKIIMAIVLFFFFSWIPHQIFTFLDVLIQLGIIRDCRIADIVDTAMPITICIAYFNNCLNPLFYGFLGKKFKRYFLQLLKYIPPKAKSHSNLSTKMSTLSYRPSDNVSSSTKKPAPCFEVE

[2] = target: T2, Sentrin-specific protease 8 (Homo sapiens, UniProt Q96LD8); type: functional;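 further: luminescence read-out of SENP8 inhibition, dose-response confirmation following an ultra-high-throughput screen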
T2 sequence (Q96LD8 whole entry): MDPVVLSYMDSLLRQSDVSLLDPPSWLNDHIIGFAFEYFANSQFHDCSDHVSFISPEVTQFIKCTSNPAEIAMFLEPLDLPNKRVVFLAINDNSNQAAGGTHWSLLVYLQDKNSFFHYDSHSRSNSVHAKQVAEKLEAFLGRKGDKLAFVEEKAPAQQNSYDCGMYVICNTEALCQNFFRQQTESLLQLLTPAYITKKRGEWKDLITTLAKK

Caspase-3 = target: T3, Caspase-3 (Homo sapiens, UniProt P42574); type: functional;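 further: Dose-response selectivity test against caspase-3 for candidate inhibitors of sentrin-specific proteases (SENPs)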
T3 sequence (P42574 whole entry): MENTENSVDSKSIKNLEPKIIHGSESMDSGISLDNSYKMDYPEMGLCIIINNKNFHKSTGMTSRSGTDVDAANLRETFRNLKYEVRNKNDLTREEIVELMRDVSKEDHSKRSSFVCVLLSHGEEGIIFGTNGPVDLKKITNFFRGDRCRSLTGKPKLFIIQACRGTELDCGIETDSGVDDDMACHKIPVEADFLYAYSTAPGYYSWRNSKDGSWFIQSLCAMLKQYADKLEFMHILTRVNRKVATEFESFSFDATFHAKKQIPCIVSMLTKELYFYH

[3] = target: T4, Sentrin-specific protease 6 (Homo sapiens, UniProt Q9GZR1); type: functional;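 further: Luminescence-based dose-response confirmatory assay of SENP6 inhibition, following up an ultra-high-throughput screen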
T4 sequence (Q9GZR1 whole entry): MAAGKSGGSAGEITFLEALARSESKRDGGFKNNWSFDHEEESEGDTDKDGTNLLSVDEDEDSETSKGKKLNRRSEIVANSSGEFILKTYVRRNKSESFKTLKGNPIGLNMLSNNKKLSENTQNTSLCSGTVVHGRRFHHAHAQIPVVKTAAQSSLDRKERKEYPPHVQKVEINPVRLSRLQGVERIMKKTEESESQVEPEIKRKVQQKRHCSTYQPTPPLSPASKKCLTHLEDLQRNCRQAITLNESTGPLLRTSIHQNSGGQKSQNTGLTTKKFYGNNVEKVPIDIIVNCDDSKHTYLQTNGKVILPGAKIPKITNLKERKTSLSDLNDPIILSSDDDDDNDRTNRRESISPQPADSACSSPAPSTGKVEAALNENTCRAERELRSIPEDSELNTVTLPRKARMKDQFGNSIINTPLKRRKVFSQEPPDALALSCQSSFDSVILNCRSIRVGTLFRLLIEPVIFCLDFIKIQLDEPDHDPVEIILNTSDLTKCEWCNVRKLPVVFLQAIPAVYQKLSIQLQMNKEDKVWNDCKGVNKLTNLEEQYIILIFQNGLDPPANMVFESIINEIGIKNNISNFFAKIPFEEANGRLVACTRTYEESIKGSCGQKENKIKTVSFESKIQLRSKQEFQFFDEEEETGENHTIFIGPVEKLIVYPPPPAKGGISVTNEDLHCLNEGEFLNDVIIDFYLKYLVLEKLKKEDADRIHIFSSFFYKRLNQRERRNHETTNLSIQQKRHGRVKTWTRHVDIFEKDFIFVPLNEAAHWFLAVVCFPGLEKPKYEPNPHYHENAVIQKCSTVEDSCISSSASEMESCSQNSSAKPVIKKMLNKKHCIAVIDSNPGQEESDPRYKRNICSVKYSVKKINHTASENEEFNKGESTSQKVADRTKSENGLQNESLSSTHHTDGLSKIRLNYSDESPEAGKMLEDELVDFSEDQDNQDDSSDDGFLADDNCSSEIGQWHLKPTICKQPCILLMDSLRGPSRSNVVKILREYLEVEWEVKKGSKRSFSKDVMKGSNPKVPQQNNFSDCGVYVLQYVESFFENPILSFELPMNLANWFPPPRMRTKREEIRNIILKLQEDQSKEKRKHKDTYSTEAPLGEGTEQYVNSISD

[4] = target: T5, Sentrin-specific protease 7 (Homo sapiens, UniProt Q9BQF6); type: functional;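 further: Luminescence-based dose-response confirmation of ultra-high-throughput screening hits, measuring inhibition of SENP7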
T5 sequence (Q9BQF6 whole entry): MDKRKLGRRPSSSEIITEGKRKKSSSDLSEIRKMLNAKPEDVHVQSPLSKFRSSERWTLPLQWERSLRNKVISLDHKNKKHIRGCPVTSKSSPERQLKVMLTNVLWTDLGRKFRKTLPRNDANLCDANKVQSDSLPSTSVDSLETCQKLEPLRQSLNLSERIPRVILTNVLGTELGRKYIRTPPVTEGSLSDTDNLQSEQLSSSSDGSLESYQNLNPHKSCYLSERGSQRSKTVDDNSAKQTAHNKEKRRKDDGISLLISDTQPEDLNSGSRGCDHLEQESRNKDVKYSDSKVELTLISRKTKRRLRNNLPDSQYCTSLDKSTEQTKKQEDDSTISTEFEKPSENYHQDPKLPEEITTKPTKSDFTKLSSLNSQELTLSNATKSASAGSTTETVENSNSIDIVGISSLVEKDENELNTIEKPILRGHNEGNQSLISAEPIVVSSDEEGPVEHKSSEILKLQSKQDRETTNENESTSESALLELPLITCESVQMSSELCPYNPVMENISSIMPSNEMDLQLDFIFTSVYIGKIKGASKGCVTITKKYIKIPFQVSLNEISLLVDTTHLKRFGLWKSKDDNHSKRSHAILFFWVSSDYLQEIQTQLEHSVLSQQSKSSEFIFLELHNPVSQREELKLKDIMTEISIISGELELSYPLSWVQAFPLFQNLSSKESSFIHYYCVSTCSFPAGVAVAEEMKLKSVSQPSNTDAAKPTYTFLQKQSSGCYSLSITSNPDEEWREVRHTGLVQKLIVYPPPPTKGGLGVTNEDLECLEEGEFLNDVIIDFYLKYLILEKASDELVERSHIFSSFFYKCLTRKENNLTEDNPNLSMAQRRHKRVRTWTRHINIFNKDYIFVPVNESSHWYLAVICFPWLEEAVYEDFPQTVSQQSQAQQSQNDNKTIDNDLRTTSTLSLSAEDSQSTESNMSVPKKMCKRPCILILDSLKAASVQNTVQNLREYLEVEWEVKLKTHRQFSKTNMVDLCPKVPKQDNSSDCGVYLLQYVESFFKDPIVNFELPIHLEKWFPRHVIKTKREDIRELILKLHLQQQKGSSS

[5] = target: Voltage-dependent T-type calcium channel subunit alpha-1H (Homo sapiens, UniProt O95180); type: functional;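 further: channel activity triggered by adding a high calcium stimulation buffer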
Cytochrome P450 2C9 = Cytochrome P450 2C9 (Homo sapiens, UniProt P11712)
Cytochrome P450 1A2 = target: T6, Cytochrome P450 1A2 (Homo sapiens, UniProt P05177);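 further: PubChem cytochrome P450 panel assay, CYP1A2 panel member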
T6 sequence (P05177 whole entry): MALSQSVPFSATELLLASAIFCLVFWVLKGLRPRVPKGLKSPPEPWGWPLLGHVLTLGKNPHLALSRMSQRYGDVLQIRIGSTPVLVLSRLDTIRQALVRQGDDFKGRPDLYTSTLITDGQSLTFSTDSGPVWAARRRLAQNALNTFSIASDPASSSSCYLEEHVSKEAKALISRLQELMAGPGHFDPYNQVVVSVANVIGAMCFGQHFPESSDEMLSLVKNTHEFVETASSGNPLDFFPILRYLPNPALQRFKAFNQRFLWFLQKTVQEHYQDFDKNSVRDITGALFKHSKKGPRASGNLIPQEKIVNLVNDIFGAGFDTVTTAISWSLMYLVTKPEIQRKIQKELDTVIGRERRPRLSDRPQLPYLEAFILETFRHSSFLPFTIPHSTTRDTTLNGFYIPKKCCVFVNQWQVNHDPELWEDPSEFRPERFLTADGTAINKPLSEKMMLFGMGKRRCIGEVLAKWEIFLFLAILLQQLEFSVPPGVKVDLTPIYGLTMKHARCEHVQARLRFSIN

[6] = target: T7, Apoptotic protease-activating factor 1 (Homo sapiens, UniProt O14727); type: functional
T7 sequence (O14727 whole entry): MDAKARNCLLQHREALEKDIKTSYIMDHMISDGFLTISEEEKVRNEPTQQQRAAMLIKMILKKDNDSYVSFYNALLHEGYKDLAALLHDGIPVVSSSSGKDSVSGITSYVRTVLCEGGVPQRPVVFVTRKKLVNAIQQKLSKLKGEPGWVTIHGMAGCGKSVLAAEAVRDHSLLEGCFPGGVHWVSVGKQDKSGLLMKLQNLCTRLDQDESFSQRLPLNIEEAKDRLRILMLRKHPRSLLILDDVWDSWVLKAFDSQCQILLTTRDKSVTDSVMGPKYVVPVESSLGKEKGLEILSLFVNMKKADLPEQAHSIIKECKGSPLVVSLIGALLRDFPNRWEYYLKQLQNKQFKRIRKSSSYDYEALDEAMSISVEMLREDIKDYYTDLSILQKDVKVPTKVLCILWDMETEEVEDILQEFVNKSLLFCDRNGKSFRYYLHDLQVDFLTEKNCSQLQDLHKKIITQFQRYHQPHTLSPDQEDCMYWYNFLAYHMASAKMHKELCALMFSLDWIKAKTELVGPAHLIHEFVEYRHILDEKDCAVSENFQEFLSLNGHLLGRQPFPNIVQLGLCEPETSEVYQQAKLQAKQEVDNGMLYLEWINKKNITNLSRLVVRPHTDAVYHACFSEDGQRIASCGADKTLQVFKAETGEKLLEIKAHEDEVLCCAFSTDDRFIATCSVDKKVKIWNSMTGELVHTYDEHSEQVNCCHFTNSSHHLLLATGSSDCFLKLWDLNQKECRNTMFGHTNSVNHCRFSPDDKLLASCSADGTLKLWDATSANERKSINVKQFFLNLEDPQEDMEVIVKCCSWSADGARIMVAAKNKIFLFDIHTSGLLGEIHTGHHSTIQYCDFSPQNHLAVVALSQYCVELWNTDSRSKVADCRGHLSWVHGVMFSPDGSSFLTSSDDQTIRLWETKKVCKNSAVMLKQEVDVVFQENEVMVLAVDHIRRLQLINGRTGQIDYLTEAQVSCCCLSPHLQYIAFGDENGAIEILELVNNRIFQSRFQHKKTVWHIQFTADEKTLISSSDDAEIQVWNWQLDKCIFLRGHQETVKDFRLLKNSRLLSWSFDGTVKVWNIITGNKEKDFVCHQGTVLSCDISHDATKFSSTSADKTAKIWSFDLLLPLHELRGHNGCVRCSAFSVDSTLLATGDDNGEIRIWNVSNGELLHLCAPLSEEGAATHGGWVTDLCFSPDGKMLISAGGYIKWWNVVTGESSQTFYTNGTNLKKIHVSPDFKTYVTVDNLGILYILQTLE

[7] = target: DNA dC->dU-editing enzyme APOBEC-3G (Homo sapiens, UniProt Q9HC16); type: functional;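 further: Dose-response counterscreen measuring inhibition of APOBEC3G DNA deaminase activity, run while confirming APOBEC3A inhibitors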
[8] = target: DNA dC->dU-editing enzyme APOBEC-3A (Homo sapiens, UniProt P31941); test: Dose Response confirmation of small molecule APOBEC3A DNA Deaminase Inhibitors via a fluorescence-based single-stranded DNA deaminase assay. [Related pubchem assays (depositor defined):AID493011, AID493024]; type: functional
[9] = target: T8, Carboxy-terminal domain RNA polymerase II polypeptide A small phosphatase 1 (Homo sapiens, UniProt Q9GZU7); test: CTDSP1 inhibitors, concentration-response, biochemical, absorbance readout, ultra-high-throughput screen actives (AID 540297); type: functional
T8 sequence (Q9GZU7 whole entry): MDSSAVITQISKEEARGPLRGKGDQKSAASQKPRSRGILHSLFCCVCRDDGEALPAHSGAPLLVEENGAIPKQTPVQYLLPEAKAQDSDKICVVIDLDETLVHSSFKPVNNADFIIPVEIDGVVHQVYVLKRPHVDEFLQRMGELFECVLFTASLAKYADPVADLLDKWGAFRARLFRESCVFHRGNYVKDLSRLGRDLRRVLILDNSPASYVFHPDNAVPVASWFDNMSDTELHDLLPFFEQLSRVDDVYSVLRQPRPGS

Cytochrome P450 2C9, sequence (P11712 whole entry): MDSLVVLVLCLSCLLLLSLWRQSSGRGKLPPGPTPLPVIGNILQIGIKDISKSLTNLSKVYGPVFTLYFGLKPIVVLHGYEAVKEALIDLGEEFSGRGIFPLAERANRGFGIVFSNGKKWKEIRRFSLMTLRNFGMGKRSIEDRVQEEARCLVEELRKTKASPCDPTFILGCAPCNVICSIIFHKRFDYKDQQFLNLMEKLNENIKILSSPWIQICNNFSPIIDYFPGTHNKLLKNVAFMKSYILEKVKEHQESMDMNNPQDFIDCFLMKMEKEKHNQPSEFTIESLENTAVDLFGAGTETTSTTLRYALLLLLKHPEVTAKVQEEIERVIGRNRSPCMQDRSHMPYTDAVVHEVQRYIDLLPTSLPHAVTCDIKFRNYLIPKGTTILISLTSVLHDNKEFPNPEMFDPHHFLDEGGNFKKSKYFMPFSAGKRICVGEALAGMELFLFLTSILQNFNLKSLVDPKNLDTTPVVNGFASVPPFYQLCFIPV
Beta-galactosidase, sequence (Q8VNN2 whole entry): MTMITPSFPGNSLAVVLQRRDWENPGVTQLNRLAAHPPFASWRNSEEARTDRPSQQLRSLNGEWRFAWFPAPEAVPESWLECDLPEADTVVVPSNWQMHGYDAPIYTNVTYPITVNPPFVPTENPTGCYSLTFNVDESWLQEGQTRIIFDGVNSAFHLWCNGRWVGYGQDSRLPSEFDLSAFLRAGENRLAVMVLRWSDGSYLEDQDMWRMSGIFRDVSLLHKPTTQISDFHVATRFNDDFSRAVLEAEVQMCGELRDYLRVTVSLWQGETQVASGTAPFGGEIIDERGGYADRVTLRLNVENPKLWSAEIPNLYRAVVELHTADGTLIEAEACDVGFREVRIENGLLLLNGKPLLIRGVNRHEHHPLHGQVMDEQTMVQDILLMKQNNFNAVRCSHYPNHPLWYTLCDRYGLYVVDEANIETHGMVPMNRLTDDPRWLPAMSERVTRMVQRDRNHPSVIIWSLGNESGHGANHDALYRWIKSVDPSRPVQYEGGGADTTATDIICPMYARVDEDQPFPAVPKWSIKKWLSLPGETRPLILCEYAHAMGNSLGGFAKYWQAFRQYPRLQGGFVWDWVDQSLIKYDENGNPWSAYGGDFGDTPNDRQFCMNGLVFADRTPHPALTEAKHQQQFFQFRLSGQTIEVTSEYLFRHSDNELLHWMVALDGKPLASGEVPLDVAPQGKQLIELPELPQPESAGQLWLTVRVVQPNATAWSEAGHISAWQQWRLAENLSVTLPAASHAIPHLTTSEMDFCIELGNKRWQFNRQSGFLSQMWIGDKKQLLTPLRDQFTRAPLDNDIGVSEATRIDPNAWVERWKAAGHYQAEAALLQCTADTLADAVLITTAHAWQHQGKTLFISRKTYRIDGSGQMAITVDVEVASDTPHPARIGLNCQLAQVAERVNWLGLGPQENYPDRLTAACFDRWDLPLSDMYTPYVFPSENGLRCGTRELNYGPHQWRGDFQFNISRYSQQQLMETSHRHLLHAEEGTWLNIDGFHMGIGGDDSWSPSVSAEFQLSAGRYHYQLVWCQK
DNA dC->dU-editing enzyme APOBEC-3G, sequence (Q9HC16 whole entry): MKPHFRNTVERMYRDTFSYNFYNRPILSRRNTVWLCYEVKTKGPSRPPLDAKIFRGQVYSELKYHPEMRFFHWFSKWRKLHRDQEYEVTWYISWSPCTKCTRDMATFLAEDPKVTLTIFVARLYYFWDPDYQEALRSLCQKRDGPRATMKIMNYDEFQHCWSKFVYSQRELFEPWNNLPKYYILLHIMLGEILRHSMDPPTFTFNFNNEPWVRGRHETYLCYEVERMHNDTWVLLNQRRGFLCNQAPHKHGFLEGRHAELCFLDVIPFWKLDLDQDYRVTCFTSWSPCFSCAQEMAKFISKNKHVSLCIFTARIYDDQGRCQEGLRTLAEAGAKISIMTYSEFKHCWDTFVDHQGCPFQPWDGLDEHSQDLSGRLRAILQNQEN
Voltage-dependent T-type calcium channel subunit alpha-1H, sequence (O95180 whole entry): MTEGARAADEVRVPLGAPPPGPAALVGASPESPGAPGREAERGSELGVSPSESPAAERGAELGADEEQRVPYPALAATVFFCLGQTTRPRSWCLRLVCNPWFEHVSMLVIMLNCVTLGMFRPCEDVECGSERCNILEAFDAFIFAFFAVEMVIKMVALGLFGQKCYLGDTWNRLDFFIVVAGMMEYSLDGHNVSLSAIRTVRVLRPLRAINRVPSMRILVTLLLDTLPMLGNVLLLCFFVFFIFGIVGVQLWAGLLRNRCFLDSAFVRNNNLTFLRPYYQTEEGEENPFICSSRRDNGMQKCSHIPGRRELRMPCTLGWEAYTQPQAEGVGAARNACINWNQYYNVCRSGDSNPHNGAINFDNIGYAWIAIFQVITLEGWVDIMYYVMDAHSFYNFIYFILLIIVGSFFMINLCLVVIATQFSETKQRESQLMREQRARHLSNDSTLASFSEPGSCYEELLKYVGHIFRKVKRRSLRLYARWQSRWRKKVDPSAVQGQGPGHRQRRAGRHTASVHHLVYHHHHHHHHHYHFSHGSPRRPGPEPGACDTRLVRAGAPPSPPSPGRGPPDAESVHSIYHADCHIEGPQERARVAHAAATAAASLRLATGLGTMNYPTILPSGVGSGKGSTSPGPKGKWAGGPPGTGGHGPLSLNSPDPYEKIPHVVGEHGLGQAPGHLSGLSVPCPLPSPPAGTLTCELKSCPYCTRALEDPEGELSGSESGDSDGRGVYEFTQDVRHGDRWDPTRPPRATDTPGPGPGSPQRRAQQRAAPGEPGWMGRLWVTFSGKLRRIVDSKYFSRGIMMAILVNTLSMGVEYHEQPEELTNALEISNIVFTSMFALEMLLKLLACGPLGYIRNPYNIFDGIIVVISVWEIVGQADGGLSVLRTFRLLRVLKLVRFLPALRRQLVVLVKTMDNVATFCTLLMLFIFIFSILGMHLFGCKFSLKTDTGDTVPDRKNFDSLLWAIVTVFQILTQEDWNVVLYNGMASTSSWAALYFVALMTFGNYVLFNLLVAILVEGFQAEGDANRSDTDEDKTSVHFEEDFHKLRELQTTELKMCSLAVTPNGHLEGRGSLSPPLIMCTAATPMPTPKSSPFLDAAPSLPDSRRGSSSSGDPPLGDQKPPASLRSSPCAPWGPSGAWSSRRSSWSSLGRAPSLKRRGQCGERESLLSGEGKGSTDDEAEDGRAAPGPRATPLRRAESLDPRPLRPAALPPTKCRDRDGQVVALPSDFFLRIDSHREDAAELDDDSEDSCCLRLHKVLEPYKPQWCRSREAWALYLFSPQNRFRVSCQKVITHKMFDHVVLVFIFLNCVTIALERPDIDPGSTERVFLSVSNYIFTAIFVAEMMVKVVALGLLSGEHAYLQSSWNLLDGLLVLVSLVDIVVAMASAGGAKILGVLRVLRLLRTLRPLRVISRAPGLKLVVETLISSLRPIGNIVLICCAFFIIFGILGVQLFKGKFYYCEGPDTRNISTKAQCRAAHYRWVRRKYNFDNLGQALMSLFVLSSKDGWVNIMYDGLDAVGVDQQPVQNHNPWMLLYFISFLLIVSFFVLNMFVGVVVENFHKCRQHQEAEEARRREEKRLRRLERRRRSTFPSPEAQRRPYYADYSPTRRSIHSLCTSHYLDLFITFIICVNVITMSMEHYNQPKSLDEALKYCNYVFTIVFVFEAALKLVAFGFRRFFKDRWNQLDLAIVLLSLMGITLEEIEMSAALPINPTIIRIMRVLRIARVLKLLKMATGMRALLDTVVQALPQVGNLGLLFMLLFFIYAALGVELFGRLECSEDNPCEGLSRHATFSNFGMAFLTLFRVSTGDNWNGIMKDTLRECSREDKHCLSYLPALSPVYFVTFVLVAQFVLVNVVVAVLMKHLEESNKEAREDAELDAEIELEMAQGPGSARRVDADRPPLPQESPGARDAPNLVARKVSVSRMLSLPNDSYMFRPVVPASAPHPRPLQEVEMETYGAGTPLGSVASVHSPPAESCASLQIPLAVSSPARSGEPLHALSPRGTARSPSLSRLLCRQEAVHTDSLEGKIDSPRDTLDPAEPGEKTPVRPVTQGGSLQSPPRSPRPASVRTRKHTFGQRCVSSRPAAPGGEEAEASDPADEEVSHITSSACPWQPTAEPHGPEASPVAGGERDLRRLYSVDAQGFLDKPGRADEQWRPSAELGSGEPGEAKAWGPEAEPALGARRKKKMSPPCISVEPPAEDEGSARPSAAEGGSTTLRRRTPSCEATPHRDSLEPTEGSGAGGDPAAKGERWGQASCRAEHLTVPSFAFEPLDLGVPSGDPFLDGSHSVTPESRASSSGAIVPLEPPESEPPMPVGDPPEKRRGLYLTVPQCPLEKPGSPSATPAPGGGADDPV
DNA dC->dU-editing enzyme APOBEC-3A, sequence (P31941 whole entry, the tested form may be a part): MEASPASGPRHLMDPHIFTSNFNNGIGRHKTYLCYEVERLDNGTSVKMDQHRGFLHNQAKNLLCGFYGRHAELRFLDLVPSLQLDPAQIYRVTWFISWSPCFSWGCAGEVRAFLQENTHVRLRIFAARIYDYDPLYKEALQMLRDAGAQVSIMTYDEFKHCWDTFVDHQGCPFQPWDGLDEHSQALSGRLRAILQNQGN

EC50 (Beta-galactosidase): > 40 µM (inactive)
IC50 [1]: 13.2 µM (active)
Structure (SMILES): Cc1ccc2nc(C)cc(C(=O)OCC(=O)c3ccc(Cl)c([N+](=O)[O-])c3)c2c1

EC50 (Beta-galactosidase): > 40 µM (inactive)
IC50 [1]: > 40 µM (not active)
Structure (SMILES): Cc1cccc(NC2=c3cccc(Cl)c3=NC2=O)c1

EC50 [5]: 6.85 µM (active)
AC50 (Cytochrome P450 2C9): inconclusive
Structure (SMILES): CCN(CC)c1ccc(/C=C/c2nc3ccccc3s2)cc1

AC50 (Cytochrome P450 1A2): 7.08 µM (inconclusive)
AC50 (Cytochrome P450 2C9): inconclusive
Structure (SMILES): Cc1cc(C)cc(-n2nnnc2SCC(=O)Nc2nc(-c3ccc(Cl)cc3)cs2)c1

IC50 [6]: 22.9 µM (active)
Structure (SMILES): O=C1NNC(c2ccccc2)=N/C1=C\c1ccc(Cl)cc1

The remaining lines, values behind:

Structure (SMILES): O=C(Cn1cc(SCc2ccc(F)cc2)c2ccccc21)N1CCOCC1
IC50 [2]: 23.2 µM (active)
IC50 (Caspase-3): 21.1 µM (active)
IC50 [3]: 21.1 µM (active)
IC50 [4]: 6.95 µM (active)

Structure (SMILES): O=C(CO)N/N=C/c1ccccc1F
AC50 (Cytochrome P450 1A2): 25.1 µM (inconclusive)
AC50 (Cytochrome P450 2C9): inconclusive

Structure (SMILES): C[N+]1(C2CCC3CCCC2C3O)CCCCC1 (centres undefined)
IC50 [7]: 2.69 µM (active)
IC50 [8]: 2.42 µM (active)
IC50 [9]: 6.61 µM (active)

Structure (SMILES): Nc1c(N2CCCC2)c2ccccc2oc1=O
EC50 (Beta-galactosidase): > 40 µM (inactive)
IC50 [1]: 13.7 µM (active)

Structure (SMILES): Nn1c(SCc2ccccc2)nc2c(cnn2-c2ccccc2)c1=O
IC50 [2]: > 100 µM (inactive)
IC50 (Caspase-3): 36.1 µM (active)
IC50 [3]: > 100 µM (inactive)
IC50 [4]: 11.4 µM (active)
